Experimental findings from ChEMBL document CHEMBL1201862, “PubChem BioAssay data set” (2004) are described below.

Where “and” joins values, the source holds several entries; their conditions need not be identical. Identical values can stand only once.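 Briefly, cells in 96-well plates were exposed to five compound concentrations for 48 h, and endpoints were estimated by linear interpolation. GI50: concentration for 50% inhibition of growth.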 Calls of active or inactive are those of the source. No stated cut-off is given here; in the data, active = GI50 up to about 1.1 µM and inactive = higher. Where only a bound is given, the exact number is not on record here.

What all share (assay): NCI-60 cell line screen, 48 h
The subject of experiment [1] is OVCAR-4.
The test system of experiment [2] is HL-60.
Experiment [3] has as its system MDA-MB-231.
Experiment [4] deals with SK-OV-3.
The test system of experiment [5] is MCF7.
Experiment [6] concerns SK-MEL-28.
Experiment [7] has as its system OVCAR-3.
Experiment [8] concerns Hs-578T.
In experiment [9] the test system is MDA-N.
Experiment [10] deals with SK-MEL-2.
In experiment [11] the test system is U-251.
Experiment [12] relates to NCI/ADR-RES.
Experiment [13] deals with SR.
Experiment [14] deals with IGROV-1.
Experiment [15] has as its system RPMI-8226.
Experiment [16] has as its system BT-549.
Experiment [17] has as its system SF-539.
Experiment [18] deals with M14.
Experiment [19] has as its system NCI-H460.
Experiment [20] relates to CCRF-CEM.

As to `Clc1ccccc1NN(Cc1ccccn1)c1ccccc1Cl`, the GI50 is 16.2 µM (inactive) in experiment [1]; 18.5 µM (inactive) in experiment [2]; 23.4 µM (inactive) in [3]; 49.8 µM (inactive) in [4]; 36.1 µM (inactive) in experiment [5]; 20.5 µM (inactive) in experiment [6]. The GI50 is 18.1 µM (inactive) in experiment [7]; 26.2 µM (inactive) in experiment [8]; 17.2 µM (inactive) in experiment [9]; 17.1 µM (inactive) in [10]; 15.8 µM (inactive) in [11]; 16.7 µM (inactive) in [12]. Moreover, the GI50 in experiment [13] is 13.4 µM (inactive); in experiment [14], 20.2 µM (inactive); in experiment [15] it was 16.1 µM (inactive); in [16], 25.1 µM (inactive); in [17], 18.7 µM (inactive); in experiment [18] it was 18.5 µM (inactive).

Regarding `N[C@H](CCC(=O)NCP(=O)(O)O)C(=O)O`, the GI50 in experiment [19], in [2], in [3], in [5], in experiment [6] and in [7] was > 100 µM (inactive) each time. For the same compound, the GI50 in experiment [8], in experiment [9], in experiment [10], in experiment [11], in experiment [12] and in experiment [13] was > 100 µM (inactive) each time. For the same compound, the GI50 in [14], in [15], in [16] and in experiment [17] was > 100 µM (inactive) throughout.

Take `COC(=O)[C@]12CCC(C)(C)C[C@H]1C1=CC[C@@H]3[C@@]4(C)CC[C@H](OC5OC(CO)C(O)C(O)C5OC5OC(CO)C(O)C(O)C5O)C(C)(C)[C@@H]4CC[C@@]3(C)[C@]1(C)CC2` (some centres undefined): the GI50 in experiment [19] was 14.5 µM (inactive); in experiment [1], 4.43 µM (inactive); in experiment [2], 4.93 µM (inactive); in experiment [3], 2.65 µM (inactive); in [4], 20.5 µM (inactive); in experiment [5], 12 µM (inactive). In addition, the GI50 is 3.37 µM (inactive) in [6]; 10.6 µM (inactive) in experiment [7]; 22.5 µM (inactive) in experiment [8]; 5.43 µM (inactive) in experiment [9]; 10.7 µM (inactive) in experiment [10]; 13.2 µM (inactive) in experiment [11]. For the same compound, the GI50 in [12] was 14.5 µM (inactive); in experiment [13], 7.85 µM (inactive); in experiment [14], 14.4 µM (inactive); in experiment [15], 19.3 µM (inactive); in experiment [16], 17.4 µM (inactive); in experiment [20], 15.7 µM (inactive). Further, in [18], the GI50 is 3.91 µM (inactive).

With `CC(C)NC(=O)OCc1c(COC(=O)NC(C)C)n(C)c2c1ccc1ccsc12`, the GI50 is 3.24 µM (inactive) in experiment [19]; 3.61 µM (inactive) in experiment [1]; 2.69 µM (inactive) in experiment [2]; 16.7 µM (inactive) in [3]; 16.2 µM (inactive) in experiment [4]; 5.16 µM (inactive) in experiment [5]. For the same compound, the GI50 was 12.6 µM (inactive) in experiment [6]; 13.9 µM (inactive) in experiment [7]; 8.87 µM (inactive) in experiment [8]; 12.4 µM (inactive) in [9]; 12.7 µM (inactive) in [10]; 8.45 µM (inactive) in experiment [11]. For the same compound, the GI50 in [12] was 6.75 µM (inactive); in [13], 2.37 µM (inactive); in experiment [14], 12.5 µM (inactive); in experiment [15], 2.94 µM (inactive); in experiment [16], 7.16 µM (inactive); in experiment [20] it was 2.25 µM (inactive). The GI50 in experiment [18] is 8.3 µM (inactive).

For `CN(C)CCNC(=O)c1cccc(C(=O)Nc2ccccc2)c1[N+](=O)[O-]`, the GI50 in experiment [19], in experiment [2], in [3], in experiment [4], in experiment [5] and in experiment [6] was > 100 µM (inactive) each time. The GI50 in [7], in experiment [8], in experiment [9], in [10], in experiment [11] and in experiment [12] was > 100 µM (inactive) in each case. For the same compound, the GI50 is > 100 µM (inactive) in [13]; > 100 µM (inactive) in [14]; 34 µM (inactive) in experiment [16]; > 100 µM (inactive) in experiment [20]; > 100 µM (inactive) in experiment [17]; > 100 µM (inactive) in [18].

For `COc1ccc(/C=C2/N/C(=N\N=C/C(O)C(O)C(O)CO)NC2=O)cc1` (centres undefined), the GI50 in experiment [19] is > 100 µM (inactive); in experiment [2] it was > 100 µM (inactive); in [3] it was 91 µM (inactive); in experiment [4], 73.6 µM (inactive); in experiment [5], 15.9 µM (inactive); in experiment [8], 78.2 µM (inactive). The GI50 is 72.6 µM (inactive) in [9]; > 100 µM (inactive) in experiment [10]; > 100 µM (inactive) and 84.7 µM (inactive) in experiment [11]; > 100 µM (inactive) in experiment [12]; > 100 µM (inactive) in [13]; > 100 µM (inactive) and 76.7 µM (inactive) in experiment [14]. Besides, the GI50 was > 100 µM (inactive) in experiment [15]; 55.8 µM (inactive) and 28 µM (inactive) in experiment [16]; 63 µM (inactive) and 53 µM (inactive) in experiment [20]; 18 µM (inactive) in experiment [17]; 51.8 µM (inactive) in [18].

As to `COc1ccc(C(=O)O[C@@H]2CCN3CC[C@H](C)[C@H]23)cc1`, the GI50 in [19], in [2], in experiment [3], in experiment [4], in [5] and in experiment [6] was > 100 µM (inactive) each time. For the same compound, the GI50 in experiment [7], in experiment [8], in experiment [9], in experiment [10], in [11] and in experiment [12] was > 100 µM (inactive) in each case. Also, the GI50 in experiment [13], in experiment [14], in experiment [15], in experiment [16], in experiment [17] and in experiment [18] was > 100 µM (inactive) in each case.

Turning to `C/C(=N\NC(=S)N1CCCCCCCCCCCC1)c1ccccn1`, the GI50 in experiment [19] was 0.256 µM (active); in experiment [1] it was 0.0491 µM (active); in experiment [2], 0.0167 µM (active); in [3] it was 0.169 µM (active); in [5], 0.0865 µM (active); in [6] it was 0.33 µM (active). Moreover, the GI50 in experiment [7] is 0.0346 µM (active); in experiment [8], 0.24 µM (active); in experiment [9], 0.126 µM (active); in experiment [10] it was 0.299 µM (active); in [11] it was 0.0673 µM (active); in experiment [12] it was 0.778 µM (active). The GI50 in experiment [13] is 0.0782 µM (active); in [14], 0.212 µM (active); in experiment [16], 0.0991 µM (active); in [20], 0.0431 µM (active); in experiment [17], 0.199 µM (active); in experiment [18], 0.214 µM (active).

As for `Clc1ncnc2c1nc(C#Cc1ccccc1)n2Cc1ccccc1`, the GI50 in experiment [19] was 82.2 µM (inactive); in [1], 16.7 µM (inactive); in experiment [2], 7.83 µM (inactive); in experiment [3] it was 26.7 µM (inactive); in experiment [4], > 100 µM (inactive); in [5], 23 µM (inactive). The GI50 in [6] is 18.8 µM (inactive); in experiment [7], 3.99 µM (inactive); in experiment [8] it was 53 µM (inactive); in [9] it was 5.61 µM (inactive); in experiment [10] it was 30 µM (inactive); in experiment [11], 17.6 µM (inactive). Also, the GI50 in experiment [12] was 60 µM (inactive); in [13], 3.08 µM (inactive); in [16], 20.8 µM (inactive); in experiment [20], 3.78 µM (inactive); in experiment [17], 29.9 µM (inactive); in experiment [18], 19.1 µM (inactive).

For the compound `O=C1/C(=C/c2cccc([N+](=O)[O-])c2)Cc2ccccc21`, the GI50 in experiment [19] was > 100 µM (inactive); in experiment [1], 75 µM (inactive); in experiment [2] it was > 100 µM (inactive); in experiment [3], > 100 µM (inactive); in experiment [4], > 100 µM (inactive); in experiment [5] it was > 100 µM (inactive). Also, the GI50 in experiment [6] was > 100 µM (inactive); in experiment [7], > 100 µM (inactive); in experiment [8] it was > 100 µM (inactive); in experiment [9], > 100 µM (inactive); in experiment [10], > 100 µM (inactive); in experiment [11], 60.1 µM (inactive). For the same compound, the GI50 is > 100 µM (inactive) in experiment [12]; 36.8 µM (inactive) in [13]; > 100 µM (inactive) in experiment [14]; > 100 µM (inactive) in experiment [15]; > 100 µM (inactive) in experiment [16]; > 100 µM (inactive) in experiment [20]. Further, the GI50 in experiment [17] and in [18] was > 100 µM (inactive) in each case.

Consider `c1ccc2c(-c3csc(-c4c[nH]c5ccccc45)n3)c[nH]c2c1`, for which the GI50 in experiment [19] was > 53.7 µM (inactive); in [1], > 100 µM (inactive); in experiment [2], 14.4 µM (inactive); in experiment [3], > 67.8 µM (inactive); in experiment [4], > 44.8 µM (inactive); in [5], > 52.1 µM (inactive). Also, the GI50 in experiment [6] was > 100 µM (inactive); in experiment [7] it was > 100 µM (inactive); in experiment [8], 61.1 µM (inactive); in [9], 49 µM (inactive); in [10], > 100 µM (inactive); in [11], > 90.6 µM (inactive). Further, the GI50 in experiment [12] was > 100 µM (inactive); in experiment [13], 2.93 µM (inactive); in [14], > 28.5 µM (inactive); in experiment [16], > 100 µM (inactive); in experiment [17], > 100 µM (inactive); in experiment [18], > 100 µM (inactive).
